For experiment [1], the system named is L1210 (mouse lymphocytic leukemia) cells. In words: Cell growth inhibition assay, L1210. Format: cell-based. As to conditions: 72 hours incubation, phosphatase assay. As to the method:
(§1) Compounds were tested for their cell growth inhibition of L1210 (ATCC no. CCL-219, mouse lymphocytic leukemia) cells, HCT116 (ATCC no. CCL-247, human colorectal carcinoma) cells, and HCT116/VM46 (a vinblastine-resistant strain of HCT116) cells in culture. A population of cells (>1×10^6 cells/mL as determined with a hemocytometer) was diluted with an appropriate amount of Dulbecco's Modified Eagle Medium (DMEM, Gibco) containing 10% fetal bovine serum (FBS, Gibco) to a final concentration of 30000 cells/mL.
(§2) To each well of a 96-well plate (Corning Costar), 100 μL of the cell media solution was added with a multichannel pipet. The cultures were incubated at 37° C. in an atmosphere of 5% CO2 and 95% humidified air for 24 hours. The test compounds were added to the plate as follows: test substances were diluted in DMSO to a concentration of 1 mM and 10-fold serial dilutions were performed on a separate 96-well plate. Fresh culture medium (100 μL) was added to each well of cells to constitute 200 μL of medium per well followed by 2 μL of each test agent. Compounds were tested in duplicate (n=2-18 times) at six concentrations between 0-1000 nM or 0-10000 nM. Following addition, cultures were incubated for an additional 72 hours.
(§3) A phosphatase assay was used to establish the IC50 values as follows: the media in each cell was removed and 100 μL of phosphatase solution (100 mg phosphatase substrate in 30 mL of 0.1 M NaOAc, pH 5.5, 0.1% Triton X-100 buffer) was added to each well. The plates were incubated at 37° C. for either 5 minutes (L1210) or 15 minutes (HCT116 and HCT116/VM46). After the given incubation time, 50 μL of 0.1 N NaOH was added to each well and the absorption at 405 nm was determined using a 96 well plate reader. As the absorption is directly proportional to the number of living cells, the IC50 values were calculated and the reported values represent of the average of 4-36 determinations (SD±10%).

Experiment [2] relates to HCT116 (human colorectal carcinoma) cells. In words: cells. Format: cell-based. As to the method:
as §1, §2, §3

Experiment [3] concerns HCT116/VM46 (a vinblastine-resistant strain of HCT116) cells. In words: Cell growth inhibition assay, HCT116/VM46. Format: cell-based, human. As to conditions: for IC50: 72 hours incubation, phosphatase assay, Pgp-overexpressing resistant line; for increase in potency relative to vinblastine, HCT116/VM46: resistant line. The method, then:
as §1, §2, §3

A further experiment has as its system tubulin. Nature of the experiment: BODIPY-vinblastine/tubulin competitive displacement assay. Format: binding. The following applies: tubulin 0.91 μM, BODIPY-VBL 1.8 μM, vinblastine analogue 18 μM, 37° C., average of 4 measurements ± SD. The method, then:
As a consequence, the commercially available BODIPY-vinblastine fluorescent probe was used to assess tubulin binding and develop its use in a direct competitive binding assay.^15 [(a) Jiang et al., Cancer Res. 1998, 58, 5389; (b) Zhang et al., PloS one 2009, 4, e4881; (c) Rai et al., PloS one 2012, 7, e44311 and (d) Rashid et al., Biochemistry 2015, 54, 2149.]
In carrying out this study, tubulin (0.1 mg/mL, 0.91 μM) was incubated with BODIPY-vinblastine (BODIPY-VBL, 1.8 μM) and a vinblastine analogue (18 μM) at 37° C. in PEM buffer containing 850 μM GTP. The BODIPY-VBL fluorescence intensity (FI) (ex: 480 nm, em: 514 nm) of 100 μL aliquots from each incubation were measured in a fluorescence micro-plate reader at 37° C. Control studies were performed with BODIPY-VBL (control 1) in the absence of a competitive ligand (maximum FI enhancement due to tubulin binding) and (control 2) in the absence of tubulin (no FI enhancement due to tubulin binding). % BODIPY-VBL displacement was calculated by the formula (control 2 FI−experiment FI)/(control 2 FI−control 1 FI)×100. Reported values are the average 4 measurements±the standard deviation.
100 μL of 1 mg/mL tubulin in PEM and 25 μL of 72 μM BODIPY-VBL in DMSO were added to 850 μL of buffer (PEM+1 mM GTP). The solution was incubated at 37° C. for 15 minutes, after which 25 μL of 720 μM competitive ligand in DMSO was added. The solution was incubated for an additional 60 minutes at 37° C., after which 100 μL aliquots of each incubation were transferred into the wells of a 96-well plate (warmed to 37° C. in the plate reader). The BODIPY-vinblastine fluorescence intensity was measured (Ex 480 nm, Em 514 nm, Cutoff 495 nm) at 37° C. Control measurements were performed with BODIPY-VBL (control 1) in the absence of a competitive ligand (maximum FI enhancement due to tubulin binding) and (control 2) in the absence of tubulin (no FI enhancement due to tubulin binding). % BODIPY-VBL displacement was calculated by the formula (Control 2 FI−Experiment FI)/(Control 2 FI−Control 1 FI)×100. PEM: 80 mM PIPES-K pH 6.8, 2 mM MgSO4, 0.5 mM EGTA pH 6.8.

Experiment [4] deals with vinblastine sensitive tumor cell lines (L1210 and HCT116). Nature of the experiment: Cell growth inhibition, vinblastine-sensitive lines stated together. The class given is cell-based. As to conditions: for more potent than the C20′ urea 9 / increase in potency relative to vinblastine: cell growth inhibition; for increase in potency relative to vinblastine: vinblastine-sensitive lines; for IC50: L1210 and HCT116, range over both lines, read-out: IC50's against vinblastine-sensitive tumor cell lines. The method, then:
as §1, §2, §3

Experiment [5] deals with L1210 (mouse lymphocytic leukemia) cells. The following applies: previously reported in Barker et al., ACS Med. Chem. Lett. 2013, 4, 985; cited from earlier work.
Experiment [6] relates to HCT116 (human colorectal carcinoma) cells. As to conditions: previously reported (footnote a, Barker et al. 2013) or background art table, cited from earlier work.
The subject of experiment [7] is HCT116/VM46 (a vinblastine-resistant strain of HCT116) cells. The following applies: previously reported (footnote a, Barker et al. 2013) or background art table, cited from earlier work.
The mark [8] stands for this setting: 72 hours incubation, phosphatase assay, read-out: IC50, HCT116.
[9] abbreviates: listed beside % displacement in second TABLE 5, read-out: IC50 (nM, HCT116).

Values joined by “and” are separate entries in the source; they are usually repeats but may differ in a detail not shown here. Equal values may be shown once. Read-outs that look alike come from different tables or passages of the source.

As a reminder, the IC50 is the concentration that inhibits the measured activity by half.

As to `CC[C@]1(NC(=O)N2Cc3ccc(NC(=O)c4cnccn4)cc3C2)C[C@H]2CN(CCc3c([nH]c4ccccc34)[C@@](C(=O)OC)(c3cc4c(cc3OC)N(C)[C@H]3[C@@](O)(C(=O)OC)[C@H](OC(C)=O)[C@]5(CC)C=CCN6CC[C@]43[C@@H]65)C2)C1` [Compound 60], the IC50 in experiment [1] worked out at 0.059 nM; in experiment [2] (setting [8]) it was 0.075 nM; in experiment [2] (setting [9]) it was 0.07 nM; in experiment [3] it was 0.83 nM. Further, the “increase in potency relative to vinblastine, HCT116/VM46” value in experiment [3] was determined as 700 fold. Moreover, the “% displacement of BODIPY-vinblastine bound to tubulin” value in the experiment with tubulin is 100% and 104 ± 12%. The “more potent than the C20′ urea 9” value in experiment [4] came to 10 fold. Moreover, the “increase in potency relative to vinblastine” value in experiment [4] was determined as 100 fold.
Regarding `CC[C@]1(NC(=O)N2Cc3ccc(NC(=O)c4cccnn4)cc3C2)C[C@H]2CN(CCc3c([nH]c4ccccc34)[C@@](C(=O)OC)(c3cc4c(cc3OC)N(C)[C@H]3[C@@](O)(C(=O)OC)[C@H](OC(C)=O)[C@]5(CC)C=CCN6CC[C@]43[C@@H]65)C2)C1` [Compound 61], the IC50 in experiment [1] was 0.059 nM; in experiment [2] (setting [8]) it was 0.067 nM; in experiment [2] (setting [9]) it was 0.07 nM; in experiment [3] it was 0.87 nM. Besides, the “increase in potency relative to vinblastine, HCT116/VM46” value in experiment [3] was found to be 700 fold. The “% displacement of BODIPY-vinblastine bound to tubulin” value in the experiment with tubulin was 100% and 101 ± 4%. Further, in experiment [4], the “more potent than the C20′ urea 9” value was found to be 10 fold. The “increase in potency relative to vinblastine” value in experiment [4] is 100 fold.
Take `CC[C@]1(NC(=O)N2Cc3ccc(NC(C)=O)cc3C2)C[C@H]2CN(CCc3c([nH]c4ccccc34)[C@@](C(=O)OC)(c3cc4c(cc3OC)N(C)[C@H]3[C@@](O)(C(=O)OC)[C@H](OC(C)=O)[C@]5(CC)C=CCN6CC[C@]43[C@@H]65)C2)C1` [Compound 40]: the half-inhibitory concentration (IC50) was 0.47 nM in experiment [1], 0.5 nM in experiment [2] (setting [8]), 9.4 nM in experiment [3] and 0.47 to 0.5 nM in experiment [4].
Turning to `CC[C@]1(NC(=O)N2Cc3ccccc3C2)C[C@H]2CN(CCc3c([nH]c4ccccc34)[C@@](C(=O)OC)(c3cc4c(cc3OC)N(C)[C@H]3[C@@](O)(C(=O)OC)[C@H](OC(C)=O)[C@]5(CC)C=CCN6CC[C@]43[C@@H]65)C2)C1` [Compound 9], the IC50 in experiment [5] is 0.51 nM; in experiment [6], 0.6 nM; in experiment [6] (listed as drawing 15) it was 0.5 nM; in experiment [7] it was 7.5 nM; in experiment [7] (listed as drawing 15), 4 nM.
Turning to `CC[C@]1(O)C[C@@H]2CN(CCc3c([nH]c4ccccc34)[C@@](C(=O)OC)(c3cc4c(cc3OC)N(C)[C@H]3[C@@](O)(C(=O)OC)[C@H](OC(C)=O)[C@]5(CC)C=CCN6CC[C@]43[C@@H]65)C2)C1` [Compound 1, Vinblastine, reference compound], the results for the “% displacement of BODIPY-vinblastine bound to tubulin” value with tubulin and in the experiment with tubulin (listed as vinblastine) were 31 ± 9% and 31%, respectively. The half-inhibitory concentration (IC50) in experiment [7] is 600 nM.
Turning to `CC[C@]1(NC(=O)N2Cc3ccc(NC(=O)c4ccncn4)cc3C2)C[C@H]2CN(CCc3c([nH]c4ccccc34)[C@@](C(=O)OC)(c3cc4c(cc3OC)N(C)[C@H]3[C@@](O)(C(=O)OC)[C@H](OC(C)=O)[C@]5(CC)C=CCN6CC[C@]43[C@@H]65)C2)C1` [Compound 58], the IC50 is 0.062 nM in experiment [1], 0.074 nM in experiment [2] (setting [8]), 0.07 nM in experiment [2] (setting [9]) and 0.88 nM in experiment [3]. Further, in experiment [3], the “increase in potency relative to vinblastine, HCT116/VM46” value worked out at 700 fold. For the same compound, the “% displacement of BODIPY-vinblastine bound to tubulin” value in the experiment with tubulin is 100% and 105 ± 5%. Besides, in experiment [4], the “more potent than the C20′ urea 9” value came to 10 fold. The “increase in potency relative to vinblastine” value in experiment [4] is 100 fold.
As to `CC[C@]1(NC(=O)N2Cc3ccc(NC(=O)c4ccccc4)cc3C2)C[C@H]2CN(CCc3c([nH]c4ccccc34)[C@@](C(=O)OC)(c3cc4c(cc3OC)N(C)[C@H]3[C@@](O)(C(=O)OC)[C@H](OC(C)=O)[C@]5(CC)C=CCN6CC[C@]43[C@@H]65)C2)C1` [Compound 50], the 50% inhibitory concentration (IC50) in experiment [1] is 0.54 nM; in experiment [2] (setting [8]) it was 0.62 nM; in experiment [3], 13 nM; in experiment [4], 0.5 to 0.6 nM.
As to `CC[C@]1(NC(=O)N2CCCC2)C[C@H]2CN(CCc3c([nH]c4ccccc34)[C@@](C(=O)OC)(c3cc4c(cc3OC)N(C)[C@H]3[C@@](O)(C(=O)OC)[C@H](OC(C)=O)[C@]5(CC)C=CCN6CC[C@]43[C@@H]65)C2)C1` [Compound 8], the IC50 in experiment [5] is 0.7 nM; in experiment [6], 0.72 nM; in experiment [6] (listed as drawing 14) it was 0.7 nM; in experiment [7], 50 nM.
Take `CC[C@]1(NC(=O)N2Cc3ccc(OC)cc3C2)C[C@H]2CN(CCc3c([nH]c4ccccc34)[C@@](C(=O)OC)(c3cc4c(cc3OC)N(C)[C@H]3[C@@](O)(C(=O)OC)[C@H](OC(C)=O)[C@]5(CC)C=CCN6CC[C@]43[C@@H]65)C2)C1` [Compound 35]: the IC50 in experiment [5] was 0.48 nM; in experiment [6] it was 0.54 nM; in experiment [7], 8.6 nM.
`CC[C@]1(O)C[C@H]2CN(CCc3c([nH]c4ccc(F)cc34)[C@@](C(=O)OC)(c3cc4c(cc3OC)N(C)[C@H]3[C@@](O)(C(=O)OC)[C@H](OC(C)=O)[C@]5(CC)C=CCN6CC[C@]43[C@@H]65)C2)C1` [Compound 71, 10′-fluorovinblastine, reference compound]: the IC50 in experiment [2] (setting [9]) came out at 0.8 nM. Besides, the “% displacement of BODIPY-vinblastine bound to tubulin” value in the experiment on tubulin turned out to be 48 ± 7%. In addition, in experiment [4], the “increase in potency relative to vinblastine” value is listed as “roughly 10 fold”.
For the compound `CC[C@]1(NC(=O)N2CCCCC2)C[C@H]2CN(CCc3c([nH]c4ccccc34)[C@@](C(=O)OC)(c3cc4c(cc3OC)N(C)[C@H]3[C@@](O)(C(=O)OC)[C@H](OC(C)=O)[C@]5(CC)C=CCN6CC[C@]43[C@@H]65)C2)C1` [Compound 23], the IC50 was 5.5 nM in experiment [5], 3.9 nM in experiment [6] and 50 nM in experiment [7].

(Values after patent publication US10975101B2, “Ultra-potent vinca alkaloids: added molecular complexity further disrupts the tublin dimer-dimer interface” (priority 2016, dated 2021).)
